Laboratory results: patent US20260256792A1, “TREATMENT OF CHRONIC SPONTANEOUS URTICARIA BY ADMINISTERING (R)-2-[3-[4-AMINO-3-(2-FLUORO-4-PHENOXY-PHENYL)PYRAZOLO[3,4-D]PYRIMIDIN-1-YL]PIPERIDINE-1-CARBONYL]-4-METHYL-4-[4-(OXETAN-3-YL)PIPERAZIN-1-YL]PENT-2-ENENITRILE” (priority 2023, published 2026)

Tested on: moderate-to-severe chronic spontaneous urticaria (CSU)
Experiment: Phase 2 CSU study: hives severity score over 7 days (HSS7)
Assay type: in vivo, human
Set-up: key to HSS7 Change from baseline, Median / HSS7, Median / HSS7, Max / HSS7 Change from baseline, Q1 / HSS7 Change from baseline, Q3 / HSS7 Change from baseline, Max: 7-day sum of daily hive scores, each 0 = none to 3 = >50 hives
Conditions: 400 mg BID
Source text: The study comprises a 12 week, randomized, double-blind, placebo-controlled, multi-center, dose-ranging efficacy and safety phase, followed by a 40 week open label extension (OLE) phase (see FIG. 1).
The study consists of three phases and an optional OLE phase.
The UAS is a validated PRO measure. The daily UAS is the sum of the daily Hive Severity Score (HSS, ranging from 0=None to 3=more than 50 hives) and the daily Itch Severity Score (ISS, ranging from 0=None to 3=intense), the 2 key urticaria signs and symptoms which are wheals and itch. The daily UAS scores range from 0 to 6 point/day. Daily UAS scores are summed over 7-day period to create the UAS7, ranging from 0 to 42, and are composed of the HSS7 and ISS7 components. […] Patients were to complete the UAS using the e-diary. The e-diary was to be used once daily on the same time of each day recording of participant's answers to the urticaria activity score over 7 days (UAS7) questionnaire. For participants who entered the OLE phase, their answers to the UAS7 questionnaire were also to be collected from Week 20 to Week24 and from Week 48 to Week 52.
The following secondary endpoints were to be analyzed using the same approach as for the primary endpoint: • Change from baseline in UAS7 at Week 4 • Change from baseline in UAS7 at Week 12 (for US and US reference countries) • Change from baseline in ISS7 at Week 12 (except US and US reference countries) • Change from baseline in HSS7 at Week 12

[1] = Omalizumab-Naïve Population, last block under Week 12, double-blind period, WOCF imputation
[2] = Week 1, Omalizumab-Naïve Population
[3] = Week 2, Omalizumab-Naïve Population
[4] = Week 3, Omalizumab-Naïve Population
[5] = Week 4, Omalizumab-Naïve Population
[6] = Week 5, Omalizumab-Naïve Population
[7] = Week 6, Omalizumab-Naïve Population
[8] = Week 7, Omalizumab-Naïve Population
[9] = Week 8, Omalizumab-Naïve Population

## CC(C)(C=C(C#N)C(=O)N1CCC[C@@H](n2nc(-c3ccc(Oc4ccccc4)cc3F)c3c(N)ncnc32)C1)N1CCN(C2COC2)CC1 [rilzabrutinib, (R)-2-[3-[4-amino-3-(2-fluoro-4-phenoxy-phenyl)pyrazolo[3,4-d]pyrimidin-1-yl]piperidine-1-carbonyl]-4-methyl-4-[4-(oxetan-3-yl)piperazin-1-yl]pent-2-enenitrile]
[1]
  HSS7, Max: 21.0
  HSS7, Min: 0.0
  HSS7 Change from baseline, Max: 0.0
  HSS7 Change from baseline, Mean (SD): −7.80 (6.87)
  HSS7 Change from baseline, Median: −5.00
  HSS7 Change from baseline, Min: −16.0
  HSS7 Change from baseline, Q1: −14.00
  HSS7 Change from baseline, Q3: −4.00
  HSS7 Percent change from baseline, Max: 0.0%
  HSS7 Percent change from baseline, Mean (SD): −53.67 (44.85) percent
  HSS7 Percent change from baseline, Median: −41.67%
  HSS7 Percent change from baseline, Min: −100.0%
  HSS7 Percent change from baseline, Q1: −100.00%
  HSS7 Percent change from baseline, Q3: −26.67%
Week 1, ITT Population
  HSS7 % Change difference for rilzabrutinib vs.placebo LS Mean (95% CI): −25.04 %
  HSS7 % Change from baseline LS Mean (SE): −33.74 (5.55) %
  HSS7 Change difference for rilzabrutinib vs.placebo LS Mean (95% CI): −2.95 (−5.36, −0.55)
  HSS7 Change from baseline LS Mean (SE): −4.79 (0.75)
  HSS7 Postbaseline Mean (SD): 9.32 (5.77)
[2]
  HSS7 % Change difference for rilzabrutinib vs.placebo LS Mean (95% CI): −27.07 %
  HSS7 % Change from baseline LS Mean (SE): −34.51 (5.97) %
  HSS7 Change difference for rilzabrutinib vs.placebo LS Mean (95% CI): −3.10 (−5.66, −0.53)
  HSS7 Change from baseline LS Mean (SE): −4.73 (0.80)
  HSS7 Postbaseline Mean (SD): 9.26 (5.76)
Week 1, Omalizumab-Naïve Population with Outlier Removed from Analysis
  HSS7 Postbaseline Mean (SD): 9.26 (5.76)
Week 2, ITT Population
  HSS7 % Change difference for rilzabrutinib vs.placebo LS Mean (95% CI): −18.39 %
  HSS7 % Change from baseline LS Mean (SE): −34.94 (5.70) %
  HSS7 Change difference for rilzabrutinib vs.placebo LS Mean (95% CI): −2.23 (−4.31, −0.14)
  HSS7 Change from baseline LS Mean (SE): −5.15 (0.79)
  HSS7 Postbaseline Mean (SD): 9.11 (5.66)
[3]
  HSS7 % Change difference for rilzabrutinib vs.placebo LS Mean (95% CI): −19.53 %
  HSS7 % Change from baseline LS Mean (SE): −34.80 (6.07) %
  HSS7 Postbaseline Mean (SD): 9.27 (5.49)
Week 2, Omalizumab-Naïve Population with Outlier Removed from Analysis
  HSS7 Postbaseline Mean (SD): 9.27 (5.49)
Week 3, ITT Population
  HSS7 % Change difference for rilzabrutinib vs.placebo LS Mean (95% CI): −19.09 %
  HSS7 % Change from baseline LS Mean (SE): −38.24 (5.88) %
  HSS7 Change difference for rilzabrutinib vs.placebo LS Mean (95% CI): −2.14 (−4.31, 0.04)
  HSS7 Change from baseline LS Mean (SE): −5.64 (0.82)
  HSS7 Postbaseline Mean (SD): 8.42 (6.15)
[4]
  HSS7 % Change difference for rilzabrutinib vs.placebo LS Mean (95% CI): −20.68 %
  HSS7 % Change from baseline LS Mean (SE): −38.38 (6.33) %
  HSS7 Postbaseline Mean (SD): 8.55 (6.09)
Week 3, Omalizumab-Naïve Population with Outlier Removed from Analysis
  HSS7 Postbaseline Mean (SD): 8.55 (6.09)
Week 4, ITT population
  HSS7 % Change difference for rilzabrutinib vs.placebo LS Mean (95% CI): −24.40 %
  HSS7 % Change from baseline LS Mean (SE): −43.10 (6.02) %
  HSS7 Change difference for rilzabrutinib vs.placebo LS Mean (95% CI): −2.71 (−4.92, −0.50)
  HSS7 Change from baseline LS Mean (SE): −6.16 (0.83)
  HSS7 Postbaseline Mean (SD): 7.50 (6.18)
[5]
  HSS7 % Change difference for rilzabrutinib vs.placebo LS Mean (95% CI): −27.23 %
  HSS7 % Change from baseline LS Mean (SE): −43.11 (6.45) %
  HSS7 Postbaseline Mean (SD): 7.60 (6.00)
Week 4, Omalizumab-Naïve Population with Outlier Removed from Analysis
  HSS7 Postbaseline Mean (SD): 7.60 (6.00)
Week 5, ITT Population
  HSS7 % Change difference for rilzabrutinib vs.placebo LS Mean (95% CI): −12.25 %
  HSS7 % Change from baseline LS Mean (SE): −41.40 (5.88) %
  HSS7 Change difference for rilzabrutinib vs.placebo LS Mean (95% CI): −1.29 (−3.57, 0.99)
  HSS7 Change from baseline LS Mean (SE): −5.93 (0.86)
  HSS7 Postbaseline Mean (SD): 7.91 (6.94)
[6]
  HSS7 % Change difference for rilzabrutinib vs.placebo LS Mean (95% CI): −9.42 (−26.13, 7.29) %
  HSS7 % Change from baseline LS Mean (SE): −39.98 (6.23) %
  HSS7 Postbaseline Mean (SD): 8.34 (6.75)
Week 5, Omalizumab-Naïve Population with Outlier Removed from Analysis
  HSS7 Postbaseline Mean (SD): 8.34 (6.75)
Week 6, ITT Population
  HSS7 % Change difference for rilzabrutinib vs.placebo LS Mean (95% CI): −15.72 %
  HSS7 % Change from baseline LS Mean (SE): −39.79 (6.64) %
  HSS7 Change difference for rilzabrutinib vs.placebo LS Mean (95% CI): −1.64 (−4.07, 0.79)
  HSS7 Change from baseline LS Mean (SE): −5.90 (0.92)
  HSS7 Postbaseline Mean (SD): 7.89 (6.65)
[7]
  HSS7 % Change difference for rilzabrutinib vs.placebo LS Mean (95% CI): −15.99 %
  HSS7 % Change from baseline LS Mean (SE): −40.02 (7.13) %
  HSS7 Postbaseline Mean (SD): 8.17 (6.62)
Week 6, Omalizumab-Naïve Population with Outlier Removed from Analysis
  HSS7 Postbaseline Mean (SD): 8.17 (6.62)
Week 7, ITT Population
  HSS7 % Change difference for rilzabrutinib vs.placebo LS Mean (95% CI): −22.31 %
  HSS7 % Change from baseline LS Mean (SE): −46.27 (6.01) %
  HSS7 Change difference for rilzabrutinib vs.placebo LS Mean (95% CI): −2.71 (−4.98, −0.44)
  HSS7 Change from baseline LS Mean (SE): −6.79 (0.86)
  HSS7 Postbaseline Mean (SD): 7.01 (6.25)
[8]
  HSS7 % Change difference for rilzabrutinib vs.placebo LS Mean (95% CI): −19.88 %
  HSS7 % Change from baseline LS Mean (SE): −45.57 (6.48) %
  HSS7 Postbaseline Mean (SD): 7.34 (6.12)
Week 7, Omalizumab-Naïve Population with Outlier Removed from Analysis
  HSS7 Postbaseline Mean (SD): 7.34 (6.12)
Week 8, ITT population
  HSS7 % Change difference for rilzabrutinib vs.placebo LS Mean (95% CI): −23.44 %
  HSS7 % Change from baseline LS Mean (SE): −52.52 (6.33) %
  HSS7 Change difference for rilzabrutinib vs.placebo LS Mean (95% CI): −2.74 (−5.15, −0.33)
  HSS7 Change from baseline LS Mean (SE): −7.49 (0.91)
  HSS7 Postbaseline Mean (SD): 6.41 (6.73)
[9]
  HSS7 % Change difference for rilzabrutinib vs.placebo LS Mean (95% CI): −25.21 %
  HSS7 % Change from baseline LS Mean (SE): −53.21 (6.86) %
  HSS7 Postbaseline Mean (SD): 6.66 (6.70)
Week 8, Omalizumab-Naïve Population with Outlier Removed from Analysis
  HSS7 Postbaseline Mean (SD): 6.66 (6.70)
Week 9, ITT Population
  HSS7 % Change difference for rilzabrutinib vs.placebo LS Mean (95% CI): −27.61 %
  HSS7 % Change from baseline LS Mean (SE): −51.53 (6.66) %
  HSS7 Change difference for rilzabrutinib vs.placebo LS Mean (95% CI): −3.04 (−5.57, −0.51)
  HSS7 Change from baseline LS Mean (SE): −7.16 (0.96)
  HSS7 Postbaseline Mean (SD): 6.69 (7.49)
Week 9, Omalizumab-Naïve Population
  HSS7 Postbaseline Mean (SD): 7.01 (7.58)
Week 9, Omalizumab-Naïve Population with Outlier Removed from Analysis
  HSS7 Postbaseline Mean (SD): 7.01 (7.58)
Week 10, ITT Population
  HSS7 % Change difference for rilzabrutinib vs.placebo LS Mean (95% CI): −24.54 %
  HSS7 % Change from baseline LS Mean (SE): −52.53 (6.82) %
  HSS7 Change difference for rilzabrutinib vs.placebo LS Mean (95% CI): −2.72 (−5.32, −0.11)
  HSS7 Change from baseline LS Mean (SE): −7.32 (0.99)
  HSS7 Postbaseline Mean (SD): 6.77 (7.18)
Week 10, Omalizumab-Naïve Population
  HSS7 Postbaseline Mean (SD): 7.05 (7.27)
Week 10, Omalizumab-Naïve Population with Outlier Removed from Analysis
  HSS7 Postbaseline Mean (SD): 7.05 (7.27)
Week 11, ITT Population
  HSS7 % Change difference for rilzabrutinib vs.placebo LS Mean (95% CI): −22.60 %
